Test results from PubChem BioAssay (NCI).
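GI50 = concentration required for 50% inhibition of growth. TGI marks complete inhibition of growth.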

Legend:
Test in all cases: NCI-60 cell line screen, 384-well format
HCT-15 colon = system: HCT-15 colon
RXF 393 renal = system: RXF 393 renal
SNB-75 CNS = system: SNB-75 CNS
OVCAR-5 ovarian = system: OVCAR-5 ovarian
TK-10 renal = system: TK-10 renal
SK-OV-3 ovarian = system: SK-OV-3 ovarian
SN12C renal = system: SN12C renal
A498 renal = system: A498 renal
KM12 colon = system: KM12 colon
NCI-H322M lung = system: NCI-H322M lung
UACC-257 melanoma = system: UACC-257 melanoma
RPMI-8226 leukemia = system: RPMI-8226 leukemia
COLO 205 colon = system: COLO 205 colon
UACC-62 melanoma = system: UACC-62 melanoma
NCI-H522 lung = system: NCI-H522 lung
A549 NSCLC = system: A549 NSCLC
HCC-2998 colon = system: HCC-2998 colon
MOLT-4 leukemia = system: MOLT-4 leukemia
LOX IMVI melanoma = system: LOX IMVI melanoma
HS 578T breast = system: HS 578T breast
NCI-H460 NSCLC = system: NCI-H460 NSCLC
HOP-62 NSCLC = system: HOP-62 NSCLC
CCRF-CEM leukemia = system: CCRF-CEM leukemia
NCI-H226 lung = system: NCI-H226 lung
SK-MEL-28 melanoma = system: SK-MEL-28 melanoma
PC-3 prostate = system: PC-3 prostate
786-0 renal = system: 786-0 renal
T-47D breast = system: T-47D breast
OVCAR-4 ovarian = system: OVCAR-4 ovarian
SF-539 CNS = system: SF-539 CNS
HCT-116 colon = system: HCT-116 colon
BT-549 breast = system: BT-549 breast
SW-620 colon = system: SW-620 colon
HT29 colon = system: HT29 colon
UO-31 renal = system: UO-31 renal
NCI/ADR-RES ovarian = system: NCI/ADR-RES ovarian
U251 glioblastoma = system: U251 glioblastoma
OVCAR-3 ovarian = system: OVCAR-3 ovarian
M14 melanoma = system: M14 melanoma
DU-145 prostate = system: DU-145 prostate
SF-268 CNS = system: SF-268 CNS
MALME-3M melanoma = system: MALME-3M melanoma
OVCAR-8 ovarian = system: OVCAR-8 ovarian
IGROV1 ovarian = system: IGROV1 ovarian
SK-MEL-5 melanoma = system: SK-MEL-5 melanoma
HL-60(TB) leukemia = system: HL-60(TB) leukemia
SNB-19 CNS = system: SNB-19 CNS
NCI-H23 lung = system: NCI-H23 lung
K-562 leukemia = system: K-562 leukemia
EKVX NSCLC = system: EKVX NSCLC
ACHN renal = system: ACHN renal
MDA-MB-468 breast = system: MDA-MB-468 breast
CAKI-1 renal = system: CAKI-1 renal
SF-295 CNS = system: SF-295 CNS
MCF7 breast = system: MCF7 breast
HOP-92 NSCLC = system: HOP-92 NSCLC

## CN[C@@H](C)C(=O)N[C@H]1CN(C(=O)CC(C)C)CC[C@H]2CC[C@@H](C(=O)NC(c3ccccc3)c3ccccc3)N2C1=O
HCT-15 colon
  GI50: > 100 µM
  TGI: > 100 µM
RXF 393 renal
  GI50: 0.823 µM
  TGI: 20 µM
SNB-75 CNS
  GI50: 49.9 µM
  TGI: > 100 µM
OVCAR-5 ovarian
  GI50: > 100 µM
  TGI: > 100 µM
TK-10 renal
  GI50: > 100 µM
  TGI: > 100 µM
SK-OV-3 ovarian
  GI50: 0.357 µM
  TGI: 9.16 µM
SN12C renal
  GI50: > 100 µM
  TGI: > 100 µM
A498 renal
  GI50: > 100 µM
  TGI: > 100 µM
KM12 colon
  GI50: > 100 µM
  TGI: > 100 µM
NCI-H322M lung
  GI50: > 100 µM
  TGI: > 100 µM
UACC-257 melanoma
  GI50: 24.7 µM
  TGI: 55 µM
RPMI-8226 leukemia
  GI50: 24.4 µM
  TGI: > 100 µM
COLO 205 colon
  GI50: > 100 µM
  TGI: > 100 µM
UACC-62 melanoma
  GI50: > 100 µM
  TGI: > 100 µM
NCI-H522 lung
  GI50: 5.58 µM
  TGI: > 100 µM
A549 NSCLC
  GI50: > 100 µM
  TGI: > 100 µM
HCC-2998 colon
  GI50: 12.5 µM
  TGI: > 100 µM
MOLT-4 leukemia
  GI50: 35.1 µM
  TGI: > 100 µM
LOX IMVI melanoma
  GI50: > 100 µM
  TGI: > 100 µM
HS 578T breast
  GI50: 16.4 µM
  TGI: > 100 µM
NCI-H460 NSCLC
  GI50: > 100 µM
  TGI: > 100 µM
HOP-62 NSCLC
  GI50: 4.4 µM
  TGI: > 100 µM
CCRF-CEM leukemia
  GI50: 15.8 µM
  TGI: > 100 µM
NCI-H226 lung
  GI50: > 100 µM
  TGI: > 100 µM
SK-MEL-28 melanoma
  GI50: > 100 µM
  TGI: > 100 µM
PC-3 prostate
  GI50: > 100 µM
  TGI: > 100 µM
786-0 renal
  GI50: > 100 µM
  TGI: > 100 µM
T-47D breast
  GI50: > 100 µM
  TGI: > 100 µM
OVCAR-4 ovarian
  GI50: 0.167 µM
  TGI: 1.05 µM
SF-539 CNS
  GI50: > 100 µM
  TGI: > 100 µM
HCT-116 colon
  GI50: > 100 µM
  TGI: > 100 µM
BT-549 breast
  GI50: 21.8 µM
  TGI: > 100 µM
SW-620 colon
  GI50: > 100 µM
  TGI: > 100 µM
HT29 colon
  GI50: 39.8 µM
  TGI: > 100 µM
UO-31 renal
  GI50: > 100 µM
  TGI: > 100 µM
NCI/ADR-RES ovarian
  GI50: > 100 µM
  TGI: > 100 µM
U251 glioblastoma
  GI50: > 100 µM
  TGI: > 100 µM
OVCAR-3 ovarian
  GI50: > 100 µM
  TGI: > 100 µM
M14 melanoma
  GI50: > 100 µM
  TGI: > 100 µM
DU-145 prostate
  GI50: > 100 µM
  TGI: > 100 µM
SF-268 CNS
  GI50: > 100 µM
  TGI: > 100 µM
MALME-3M melanoma
  GI50: 0.542 µM
  TGI: 11 µM
OVCAR-8 ovarian
  GI50: 68.8 µM
  TGI: > 100 µM
IGROV1 ovarian
  GI50: > 100 µM
  TGI: > 100 µM
SK-MEL-5 melanoma
  GI50: 3.63 µM
  TGI: 21.8 µM
HL-60(TB) leukemia
  GI50: 1.56 µM
  TGI: 12.1 µM
SNB-19 CNS
  GI50: > 100 µM
  TGI: > 100 µM
NCI-H23 lung
  GI50: 49 µM
  TGI: > 100 µM
K-562 leukemia
  GI50: 56.6 µM
  TGI: > 100 µM
EKVX NSCLC
  GI50: > 100 µM
  TGI: > 100 µM
ACHN renal
  GI50: > 100 µM
  TGI: > 100 µM
MDA-MB-468 breast
  GI50: 2.78 µM
  TGI: 72.1 µM
CAKI-1 renal
  GI50: > 100 µM
  TGI: > 100 µM
SF-295 CNS
  GI50: > 100 µM
  TGI: > 100 µM
MCF7 breast
  GI50: 83.8 µM
  TGI: > 100 µM
HOP-92 NSCLC
  GI50: 13.8 µM
  TGI: 50.7 µM
